According to PubChem BioAssay (NCI):
Values joined by “and” are separate entries in the source; they are usually repeats but may differ in a detail not shown here. Equal entries are not always repeated.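 Five compound concentrations were applied to cells in 96-well plates for 48 hours; endpoints were derived by simple linear interpolation of the resulting dose-response curve. GI50 is the concentration that inhibits growth by half. At the TGI there is no net growth.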

Columns and labels:
Test in all cases: DTP human tumour cell line panel, 48 h
SK-MEL-2 melanoma = test system: SK-MEL-2 melanoma
OVCAR-4 ovarian = test system: OVCAR-4 ovarian
NCI/ADR-RES ovarian = test system: NCI/ADR-RES ovarian
UO-31 renal = test system: UO-31 renal
SK-OV-3 ovarian = test system: SK-OV-3 ovarian
T-47D breast = test system: T-47D breast
OVCAR-3 ovarian = test system: OVCAR-3 ovarian
CAKI-1 renal = test system: CAKI-1 renal
SF-268 CNS = test system: SF-268 CNS
SN12C renal = test system: SN12C renal

SMILES | TGI (SK-MEL-2 melanoma) | TGI (OVCAR-4 ovarian) [nM] | TGI (NCI/ADR-RES ovarian) [nM] | TGI (UO-31 renal) | TGI (SK-OV-3 ovarian) [nM] | TGI (T-47D breast) [nM] | TGI (OVCAR-3 ovarian) | TGI (CAKI-1 renal) | TGI (SF-268 CNS) [nM] | TGI (SN12C renal) | GI50 (SK-MEL-2 melanoma) [nM] | GI50 (OVCAR-4 ovarian) [nM] | GI50 (NCI/ADR-RES ovarian) [nM] | GI50 (UO-31 renal) [nM] | GI50 (SK-OV-3 ovarian) [nM] | GI50 (T-47D breast) [nM] | GI50 (OVCAR-3 ovarian) [nM] | GI50 (CAKI-1 renal) [nM] | GI50 (SF-268 CNS) [nM] | GI50 (SN12C renal) [nM]
O=S(=O)(O)n1ccnc1 (tested in a mixture with another compound) | > 100000 nM | > 100000 | > 100000 | > 100000 nM | > 100000 | > 100000 | > 100000 nM | > 100000 nM | > 100000 | > 100000 nM | – | – | – | – | – | – | – | – | – | –
C#CCOC(=O)/C=C/C(=O)Oc1ccc2c(C)cc(=O)oc2c1 | > 100000 nM | > 100000 | > 100000 | > 100000 nM | > 100000 | > 100000 | > 100000 nM | > 100000 nM | > 100000 | > 100000 nM | > 100000 | > 100000 | > 100000 | > 100000 | > 100000 | > 100000 | > 100000 | > 100000 | > 100000 | > 100000
O=C(c1ccccc1)C1OC1C(=O)c1ccccc1 (stereo not given) | 9530 nM | 26300 | > 100000 | 85600 nM | > 100000 | > 100000 | 6700 nM | 23400 nM | 19100 | 63400 nM | 2660 | 3840 | 1880 | 8090 | 7980 | 3510 | 1770 | 2820 | 2930 | 3220
CN[C@@H](Cc1cccc2ccccc12)C(=O)N[C@@H](CC(C)C)B(O)O | 59.9 nM and 104 nM | – | 197 | 59 nM and < 13.1 nM | > 100000 | 37.2 | 37 nM and < 14.7 nM | 27.2 nM and < 13.1 nM | 35.3 | 72.2 nM and 18.5 nM | 23.7 | 23.9 | 41.2 | 17.9 | 94.4 | 15.6 | 15.8 | – | 15.4 | 16.7
COc1cc2c(cc1O)c(=O)n(CCN(C)C)c1c3cc4c(cc3ncc21)OCO4 | 360 nM | 1740 | 526 | 170 nM | 87.6 | 63.1 | 423 nM | 1240 nM | 19900 | 10500 nM | 136 | 51.1 | < 10 | < 12.4 | < 10.6 | < 10 | 38.8 | < 10 | < 10 | < 10
CCN1C(=O)N(CC)C2C1NN=c1s/c(=C\c3ccc(C(F)(F)F)cc3)c(=O)n12 (stereo not given) | > 52300 nM | > 74500 | – | > 42900 nM | > 100000 | 71300 | 635 nM | 36400 nM | > 41000 | 20000 nM | 859 | 839 | 291 | 839 | 492 | 360 | 252 | 328 | 1030 | 678
CC[C@H]1CCC/C=C/[C@@H]2C[C@H](O)C[C@H]2[C@H](O)/C=C/C(=O)O1 | 198 nM | – | > 45300 | > 37200 nM | – | 263 | 104 nM | > 100000 nM | > 100000 | > 100000 nM | 33.7 | 36.1 | 37.9 | 26.7 | 47.6 | 63.6 | 28.1 | 44.4 | 40.3 | 53
